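Interpolation was linear, between the two tested concentrations surrounding the appropriate level; five concentrations were tested over 48 hours in 96-well plates. GI50 is the concentration that inhibits growth by half. The concentration for full growth arrest is given as TGI.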

Experimental findings from PubChem BioAssay (NCI) are described below.

Common to all, as to assay: DTP human tumour cell line panel, 48 h
The test system of test [1] is A498 renal.
The test system of test [2] is A549 NSCLC.
Test [3] concerns BT-549 breast.
Test [4] concerns EKVX NSCLC.
Test [5] relates to HCC-2998 colon.
The test system of test [6] is HOP-62 NSCLC.
Test [7] has as its system LOX IMVI melanoma.
Test [8] relates to NCI/ADR-RES ovarian.
For test [9], the system named is OVCAR-3 ovarian.
Test [10] has as its system OVCAR-4 ovarian.

As for `O=[N+]([O-])c1ccc(Br)c([N+](=O)[O-])c1`, the GI50 (in general, the concentration giving 50% growth inhibition) in test [1] was 14.3 µM; in test [2], 4.12 µM; in test [3] it was 5.32 µM; in test [4] it was 1.84 µM; in [5] it was 4.73 µM; in [6], 1.78 µM. Besides, the GI50 in [7] was 1.67 µM; in test [8] it was 2.39 µM; in test [9], 1.88 µM; in test [10], 1.72 µM. The TGI (in general, the concentration at which net growth stops) was determined as 27.7 µM in test [1]; 16.4 µM in test [2]; 10.9 µM in test [3]; 4 µM in [4]; 16.7 µM in test [5]; 3.24 µM in [6]. Also, the TGI was determined as 3.38 µM in test [7], 5.69 µM in test [8], 3.38 µM in [9] and 3.19 µM in test [10].
Take `COC(=O)Nc1nc2ccc(Oc3ccc(NC(=O)Nc4cccc(C(=O)O)c4)cc3)cc2[nH]1`: the GI50 in [1] was 4.98 µM; in test [2], 10.5 µM; in test [3], 14.8 µM; in test [4], more than 23 µM; in [5], 8.44 µM; in test [6], 7.09 µM. The GI50 was more than 14.6 µM in test [7], 6.13 µM in test [8], 4.41 µM in [9] and 9.77 µM in test [10]. The TGI in test [1] is more than 25 µM; in [2], more than 25 µM; in test [3] it was more than 25 µM; in test [4] it was more than 25 µM; in [5] it was more than 25 µM; in test [6], more than 22 µM. Also, the TGI in test [7] was more than 25 µM; in [8] it was more than 17.4 µM; in [9] it was 10.5 µM; in test [10], more than 25 µM.
For `CCN(CC)CCCC(C)Nc1cnc(C(=O)Nc2ccc(Cl)c3cccnc23)cn1` (stereo not given), the GI50 in [1] is 5.48 µM; in [2], 2.71 µM; in test [3] it was 1.59 µM; in test [4], 3.98 µM; in test [5] it was 1.5 µM; in test [6] it was 1.77 µM. Moreover, the GI50 in test [7] was 1.78 µM; in test [8], 2.55 µM; in test [9], 2.01 µM; in [10] it was 2.42 µM. Besides, the TGI in [1] is 19.5 µM; in test [2], 11.8 µM; in [3], 3.08 µM; in test [4], 17.2 µM; in test [5], 3.08 µM; in [6] it was 3.61 µM. Moreover, the TGI is 3.3 µM in test [7], 9.33 µM in test [8], 3.97 µM in test [9] and 6.99 µM in [10].
In the case of `CC[C@@H](C(=O)[C@@H](C)[C@@H](O)[C@H](C)[C@@H]1O[C@@H]([C@@H](CC)C(=O)O)CC[C@@H]1C)C1O[C@]2(C=CC(=O)[C@]3(CC[C@@](C)([C@H]4CC[C@](O)(CC)[C@H](C)O4)O3)O2)[C@H](C)C[C@@H]1C` (stereo not given in full), the GI50 in [1] is 0.0631 µM; in [2] it was 0.342 µM; in [3] it was 0.22 µM; in test [4], 0.538 µM; in test [5], 0.152 µM; in test [6], 0.334 µM. The GI50 in [7] was 0.71 µM; in test [8], 0.766 µM; in [9], 0.0547 µM; in test [10] it was 1.1 µM. Further, the TGI was determined as 0.877 µM in [1]; 22.7 µM in [2]; 13.1 µM in test [3]; 18.7 µM in test [4]; 12.6 µM in [5]; 18.3 µM in [6]. The TGI in [7] is 13.8 µM; in [8], 21.1 µM; in [9] it was 12.5 µM; in [10], 17.9 µM.
For `Cn1ccnc1C(=O)/C=C/c1ccc(C(=O)Nc2ccc(Cl)cc2)cc1`, the GI50 in test [1] is 0.661 µM; in test [2], 0.951 µM; in test [3] it was 0.958 µM; in test [4], 2.34 µM; in test [5] it was 0.655 µM; in test [6], 1.04 µM. Besides, the GI50 in test [7] was 0.686 µM; in [8] it was 1.06 µM; in [9], 0.91 µM; in test [10], 0.981 µM. For the same compound, the TGI in [1] was more than 33.3 µM; in [2] it was more than 33.3 µM; in [3] it was 7.72 µM; in [4], 22 µM; in test [5], 1.43 µM; in test [6], more than 33.3 µM. Moreover, the TGI in test [7] is 1.56 µM; in [8], more than 33.3 µM; in test [9] it was 3.16 µM; in test [10] it was more than 33.3 µM.
As for `CC(C)(C)NC(C1=CC(C)(C)c2ccccc2C1=O)c1ccccc1` (stereo not given), the GI50 in test [1] is 1.87 µM; in test [2] it was 2.16 µM; in test [3], 1.61 µM; in [4] it was 1.67 µM; in test [5], 1.66 µM; in test [6], 2.16 µM. In addition, the GI50 was 1.42 µM in test [7], 2.45 µM in test [8], 1.31 µM in test [9] and 1.51 µM in test [10]. For the same compound, the TGI worked out at 6.37 µM in test [1]; 5.25 µM in [2]; 4.92 µM in test [3]; 4.61 µM in test [4]; 3.1 µM in [5]; 4.84 µM in [6]. Also, the TGI in [7] was found to be 2.73 µM; in test [8] it was 6.29 µM; in test [9] it was 2.58 µM; in test [10], 5.93 µM.
`CC1=C[C@H]2c3c(c(O)c(O)c4oc5c(C)cccc5c(=O)c34)[C@H](c3cc(O)c(O)c4oc5c(C)cccc5c(=O)c34)[C@H]2C(C)(C)C1`: the GI50 in [1] was 1.85 µM; in [2], 1.04 µM; in test [3], 1.9 µM; in [4], 2.34 µM; in test [5], 1.45 µM; in test [6], 1.15 µM. In addition, the GI50 was 0.966 µM in [7], 2.44 µM in test [8], 1.52 µM in [9] and 1.51 µM in [10]. Also, the TGI was determined as 5.35 µM in [1]; 4.85 µM in test [2]; 5.04 µM in [3]; 11 µM in test [4]; 3.47 µM in [5]; 3.44 µM in [6]. The TGI in [7] came to 2.22 µM; in test [8], 7.15 µM; in test [9], 9.34 µM; in [10] it was 14.7 µM.
